In patent US12312355B2, “1H-[1, 2, 3]triazolo[4, 5-h] quinazoline compounds acting as protein kinase inhibitors” (CHENGDU CYNOGEN BIO-PHARMACEUTICAL TECHNOLOGY CO., LTD., priority 2019, dated 2025):
Structures can show the parent of a compound that is named as a salt.

Experiments:
Format in all cases: biochemical
Settings in all cases: class symbols
CDK2/cyclin A2 = CDK2/cyclin A2 (Homo sapiens (Human), UniProt P24941); assay: Kinase activity assay, Caliper Mobility Shift Assay, CDK2/cyclin A2
Protocol: (§1) The inhibitory effect of the compound on the kinase CDK4/cyclin D3 was tested by the Caliper Mobility Shift Assay method. The final test concentration of the compound was 10 concentrations, which started from […] and were obtained by three-fold dilution. 5 μL of 5-fold final concentration compound and 10 μL of CDK4/Cyclin D3 kinase solution with final concentration of 10 nM were added to the 384-well reaction plate respectively, and pre incubated at room temperature for 10 minutes (the negative control well contained 10 μL kinase buffer and 5 μL 5% DMSO; the positive control well contained 10 μL kinase solution and 5 μL 5% DMSO). The mixture of 10 μL ATP with a final concentration of 250 μM and the corresponding substrate peptide was added to initiate the reaction, and the mixture was reacted at room temperature for 150 minutes. 30 μL of stop test solution containing EDTA was added to stop the kinase reaction. Conversion rate was read by Caliper EZ Reader. Conversion inhibition rate %=(average conversion rate of positive control %−sample conversion rate %)/(average conversion rate of positive control %−average conversion rate of negative control %). Wherein: the negative control well represents conversion rate reading of wells without enzyme activity; the positive control well represents conversion rate reading of wells without compound inhibition. The log value of concentration was taken as the X-axis and the percentage inhibition rate was the Y-axis. The dose-effect curve was fitted by log(inhibitor) vs. response—Variable slope of the analysis software GraphPad Prism 5, and the IC50 value of each compound on the enzyme activity was obtained. Calculation formula: Y=Bottom+(Top−Bottom)/(1+10^((Log IC50−X)*HillSlope)).
The IC50 values of the compounds of the present disclosure for CDK6/cyclin D3 and CDK2/cyclin A2 were tested in a similar manner.

CDK6/cyclin D3 = CDK6/cyclin D3 (Homo sapiens (Human), UniProt Q00534); assay: Kinase activity assay, Caliper Mobility Shift Assay, CDK6/cyclin D3
Sequence of CDK6/cyclin D3 (Q00534 whole entry, species assumed): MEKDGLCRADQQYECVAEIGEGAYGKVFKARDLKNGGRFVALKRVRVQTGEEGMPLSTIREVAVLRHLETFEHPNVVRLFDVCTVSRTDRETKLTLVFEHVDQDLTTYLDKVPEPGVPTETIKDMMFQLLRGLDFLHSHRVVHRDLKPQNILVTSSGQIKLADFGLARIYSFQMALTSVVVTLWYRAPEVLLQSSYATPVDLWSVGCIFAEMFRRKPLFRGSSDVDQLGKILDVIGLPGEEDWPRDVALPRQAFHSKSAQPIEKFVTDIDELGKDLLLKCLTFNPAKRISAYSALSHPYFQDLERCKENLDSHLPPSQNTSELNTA
Sequence of CDK6/cyclin D3 (P30281 whole entry partner, species assumed): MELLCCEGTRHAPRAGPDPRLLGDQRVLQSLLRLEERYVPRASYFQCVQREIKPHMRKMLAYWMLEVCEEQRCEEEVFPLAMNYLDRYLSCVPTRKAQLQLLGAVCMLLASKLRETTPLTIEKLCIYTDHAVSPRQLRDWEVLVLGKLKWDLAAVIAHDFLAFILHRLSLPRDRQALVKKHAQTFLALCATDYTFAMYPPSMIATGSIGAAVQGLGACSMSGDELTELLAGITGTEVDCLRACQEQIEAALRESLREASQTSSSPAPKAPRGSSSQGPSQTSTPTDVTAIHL

CDK4/cyclin D3 = CDK4/cyclin D3 (Homo sapiens (Human), UniProt P11802); assay: Kinase activity assay, Caliper Mobility Shift Assay, CDK4/cyclin D3
Sequence of CDK4/cyclin D3 (P11802 whole entry, species assumed): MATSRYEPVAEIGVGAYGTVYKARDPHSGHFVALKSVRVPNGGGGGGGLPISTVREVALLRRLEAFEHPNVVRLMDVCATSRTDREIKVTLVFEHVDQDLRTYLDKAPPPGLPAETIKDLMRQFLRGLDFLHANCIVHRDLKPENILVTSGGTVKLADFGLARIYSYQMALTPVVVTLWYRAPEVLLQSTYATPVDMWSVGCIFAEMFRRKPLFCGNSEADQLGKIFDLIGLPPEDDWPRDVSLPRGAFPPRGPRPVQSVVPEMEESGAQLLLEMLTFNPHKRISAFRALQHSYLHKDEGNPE
Sequence of CDK4/cyclin D3 (P30281 whole entry partner, species assumed): as the sequence (P30281 whole entry partner, species assumed) above
Protocol: as §1, with “The dose-effect curve was fitted by log(inhibitor) vs. response—Variable slope of the analysis software GraphPad Prism 5, and the IC50 value of each compound on the enzyme activity was obtained.” left out

Measured: IC50

COc1cc(N2CCNCC2)ccc1Nc1ncc2ccc3nnn(C(C)C)c3c2n1 [Compound I-30, 1-Isopropyl-N-(2-methoxy-4-(piperazin-1-yl)phenyl)-1H-[1,2,3]triazolo[4,5-h]quin-azolin-8-amine hydrochloride]
< 10 nM: all assays above

CC(C)n1nnc2ccc3cnc(Nc4ccc(C(=O)N5CCNCC5)cc4)nc3c21 [Compound I-39, (4-((1-Isopropyl-1H-[1,2,3]triazolo[4,5-h]quinazolin-8-yl)amino)phenyl)(piper-azin-1-yl)methanone hydrochloride]
< 10 nM: all assays above
